{"source": "BindingDB's records for doi:10.1021/jm800369f", "about": "(Amgen, 2008)", "target": "Corticosteroid 11-beta-dehydrogenase isozyme 1", "assay": "Inhibition of human recombinant 11beta-HSD1 expressed in Pichia pastoris"}
{"compound": "O=C(Nc1cccc(C(=O)N2CCC[C@H]3CCCC[C@@H]32)c1)c1ccccc1", "note": "[N-(3-((4aR,8aS)-decahydroquinoline-1-carbonyl)phenyl)benzamide]", "values": [{"measurement": "IC50", "result": 14, "unit": "nM"}]}
